Test systems include A549 NSCLC; COLO 205 colon; HCT-15 colon; HL-60(TB) leukemia; HOP-62 NSCLC; HOP-92 NSCLC; HT29 colon; IGROV1 ovarian; K-562 leukemia; MDA-MB-435; MDA-N; MOLT-4 leukemia; NCI-H226 lung; NCI-H460 lung; SN12C renal; SNB-19 CNS; SW-620 colon; T-47D breast; UACC-257 melanoma; UO-31 renal.
Test in all cases: NCI tumour cell line growth inhibition, 48 h

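A five-concentration, 48-hour dose response in 96-well plates underlies each endpoint, interpolated linearly between surrounding concentrations. TGI is the concentration that stops growth completely.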 Where only a bound is given, the exact number is not on record here.

The source of these data is PubChem BioAssay (NCI).

Regarding `CC[P+]1(c2ccccc2)[C@@H](C)CC[C@@H]1C`, the TGI in the assay on A549 NSCLC, in the assay with COLO 205 colon, in the assay on HCT-15 colon, in the assay on HL-60(TB) leukemia, with HOP-62 NSCLC and with HOP-92 NSCLC was above 100 µM in each case. The TGI with HT29 colon, in the assay with IGROV1 ovarian, with K-562 leukemia, with MDA-MB-435, in the assay with MDA-N and in the assay with MOLT-4 leukemia was above 100 µM each time. In addition, the TGI in the assay with NCI-H226 lung, in the assay on NCI-H460 lung, with SN12C renal, with SNB-19 CNS, in the assay with SW-620 colon and in the assay with T-47D breast was above 100 µM throughout. Further, the TGI with UACC-257 melanoma and with UO-31 renal was above 100 µM throughout.

In the case of `COc1cc2ccc1OCc1cccc(n1)COc1ccc(cc1OC)C=NCCNCCNCCN=C2`, the TGI with A549 NSCLC, with COLO 205 colon, with HCT-15 colon, with HL-60(TB) leukemia, with HOP-62 NSCLC and in the assay on HOP-92 NSCLC was above 100 µM in each case. For the same compound, the TGI in the assay with HT29 colon, in the assay with IGROV1 ovarian, with K-562 leukemia, with MDA-MB-435, with MDA-N and in the assay on MOLT-4 leukemia was above 100 µM each time. For the same compound, the TGI with NCI-H226 lung, in the assay on NCI-H460 lung, in the assay on SN12C renal, in the assay on SNB-19 CNS, with SW-620 colon and in the assay with T-47D breast was above 100 µM each time. In addition, the TGI with UACC-257 melanoma and with UO-31 renal was above 100 µM throughout.

In the case of `CCCN1C(=O)/C(=C\c2ccc(OC)c(OC)c2)SC1=Nc1ccccc1`, the TGI is above 100 µM in the assay with A549 NSCLC; above 100 µM in the assay with COLO 205 colon; above 100 µM in the assay with HCT-15 colon; above 100 µM in the assay with HL-60(TB) leukemia; 98.5 µM in the assay with HOP-62 NSCLC; above 100 µM in the assay with HOP-92 NSCLC. Besides, the TGI in the assay with HT29 colon, in the assay on IGROV1 ovarian, with K-562 leukemia, in the assay with MDA-MB-435, with MDA-N and with MOLT-4 leukemia was above 100 µM throughout. The TGI in the assay with NCI-H226 lung, in the assay with NCI-H460 lung, in the assay on SN12C renal, with SNB-19 CNS, with SW-620 colon and in the assay on T-47D breast was above 100 µM each time. Further, the TGI in the assay on UACC-257 melanoma and in the assay on UO-31 renal was above 100 µM in each case.

`C=CCc1cc(C(Cc2ccccc2)NC(C)C)cc(OCc2ccccc2)c1OCc1ccccc1` (stereo not given): the TGI with A549 NSCLC was found to be 30.5 µM; in the assay on COLO 205 colon, 31.3 µM; with HCT-15 colon, 30.7 µM; in the assay with HL-60(TB) leukemia, 34.7 µM; in the assay with HOP-62 NSCLC it was 30.3 µM; with HOP-92 NSCLC, 25.3 µM. For the same compound, the TGI with HT29 colon was 28.6 µM; with IGROV1 ovarian it was 29.9 µM; with K-562 leukemia, 40.9 µM; in the assay on MDA-MB-435, 29.2 µM; with MDA-N, 25.8 µM; with MOLT-4 leukemia it was 26.7 µM. In addition, the TGI is 36.2 µM in the assay on NCI-H226 lung; 28.5 µM in the assay with NCI-H460 lung; 29.4 µM with SN12C renal; 28.8 µM in the assay on SNB-19 CNS; 32.5 µM in the assay with SW-620 colon; 29.2 µM with T-47D breast. In addition, the TGI was found to be 34.4 µM in the assay with UACC-257 melanoma and 21.7 µM with UO-31 renal.

Consider `Cc1c(N2C(=O)/C(=C/c3ccc(N(CCC#N)CCC#N)cc3)N=C2c2ccccc2)c(=O)n(-c2ccccc2)n1C`, for which the TGI in the assay with A549 NSCLC, in the assay with COLO 205 colon, in the assay with HCT-15 colon, with HL-60(TB) leukemia, with HOP-62 NSCLC and in the assay on HOP-92 NSCLC was above 100 µM in each case. Moreover, the TGI in the assay with HT29 colon, with IGROV1 ovarian, in the assay on MDA-MB-435, with MDA-N, in the assay on MOLT-4 leukemia and with NCI-H226 lung was above 100 µM throughout. Also, the TGI with NCI-H460 lung, in the assay with SN12C renal, in the assay on SNB-19 CNS, in the assay with SW-620 colon, in the assay on T-47D breast and with UACC-257 melanoma was above 100 µM each time. This compound had a TGI in the assay with UO-31 renal above 100 µM.

With `Cc1cccc(C)c1Nc1nc(C)c(C(=O)CC(=O)C(=O)Nc2c(C(C)C)cccc2C(C)C)s1`, the TGI in the assay on A549 NSCLC, in the assay on COLO 205 colon, with HCT-15 colon, in the assay with HL-60(TB) leukemia, in the assay with HOP-62 NSCLC and in the assay with HOP-92 NSCLC was above 100 µM in each case. The TGI in the assay on HT29 colon, in the assay on IGROV1 ovarian, in the assay with K-562 leukemia, with MDA-MB-435, with MDA-N and in the assay on MOLT-4 leukemia was above 100 µM throughout. The TGI with NCI-H226 lung, in the assay on NCI-H460 lung, in the assay on SN12C renal, in the assay with SNB-19 CNS, with SW-620 colon and with T-47D breast was above 100 µM each time. Moreover, the TGI in the assay with UACC-257 melanoma and in the assay on UO-31 renal was above 100 µM each time.

In the case of `CC(C)(C)C1=CC(=C2C=Cc3ccccc3O2)C=C(C(C)(C)C)C1=O`, the TGI with A549 NSCLC is 26.2 µM; in the assay on COLO 205 colon it was 4.71 µM; in the assay on HCT-15 colon, 19.3 µM; in the assay with HL-60(TB) leukemia it was 5.92 µM; in the assay with HOP-62 NSCLC it was 20.9 µM; in the assay with HOP-92 NSCLC, above 51 µM. For the same compound, the TGI in the assay with HT29 colon was 17.3 µM; in the assay with IGROV1 ovarian, above 52.8 µM; in the assay with K-562 leukemia it was 29.9 µM; with MDA-MB-435, 5.11 µM; in the assay with MDA-N, 7.39 µM; with MOLT-4 leukemia, above 21.3 µM. In addition, the TGI was 25.6 µM with NCI-H226 lung; 4.04 µM in the assay on NCI-H460 lung; 15.3 µM in the assay with SN12C renal; above 50.7 µM in the assay with SNB-19 CNS; 13.9 µM with SW-620 colon; 9.97 µM with T-47D breast. Besides, the results for the TGI in the assay on UACC-257 melanoma and in the assay on UO-31 renal were 13.2 µM and 21.9 µM, respectively.

`CN(C)c1cccc2c1C(=O)C=CC21CCc2ccc(N(C)C)c3c(N(C)C)ccc1c23` (stereo not given): the TGI was 42.3 µM in the assay with A549 NSCLC; 29 µM in the assay on COLO 205 colon; 27.3 µM in the assay on HL-60(TB) leukemia; 32.8 µM with HOP-62 NSCLC; 41.8 µM with HOP-92 NSCLC; 27 µM with HT29 colon. For the same compound, the TGI in the assay on IGROV1 ovarian stood at 31.2 µM; in the assay with K-562 leukemia, 24.2 µM; in the assay with MDA-MB-435, 28.6 µM; in the assay with MDA-N, 28.6 µM; in the assay on MOLT-4 leukemia, 47 µM; in the assay with NCI-H226 lung, 33 µM. Also, the TGI with NCI-H460 lung was 28.7 µM; in the assay with SN12C renal, 26.5 µM; in the assay on SNB-19 CNS, 33.4 µM; in the assay with SW-620 colon it was 35.6 µM; in the assay with T-47D breast, above 100 µM; with UACC-257 melanoma, 25.1 µM. For the same compound, in the assay with UO-31 renal, the TGI was determined as 24.1 µM.

Regarding `CC(C)(C)OC(=O)CN1CCN(CC(=O)N2CCN(C(=O)OCc3ccccc3)CC2)CCN(CC(=O)OC(C)(C)C)CCN(CC(=O)N2CCN(C(=O)OCc3ccccc3)CC2)CC1`, the TGI in the assay with A549 NSCLC is 16.3 µM; in the assay with COLO 205 colon, 2.64 µM; in the assay on HCT-15 colon, 19.1 µM; in the assay on HL-60(TB) leukemia it was 0.525 µM; in the assay on HOP-62 NSCLC, 16.4 µM; in the assay on HOP-92 NSCLC it was 11.4 µM. Moreover, the TGI in the assay with HT29 colon is 1.37 µM; in the assay on IGROV1 ovarian, 2.65 µM; with MDA-MB-435, 7.36 µM; in the assay with MDA-N, 7.65 µM; in the assay on MOLT-4 leukemia, 5.05 µM; in the assay with NCI-H226 lung, 22.8 µM. Further, the TGI in the assay with NCI-H460 lung amounted to 6.98 µM; with SN12C renal, 16.3 µM; with SNB-19 CNS, 14.6 µM; in the assay on SW-620 colon it was 8.5 µM; in the assay with T-47D breast, 18.8 µM; in the assay on UACC-257 melanoma, 5.92 µM. Also, the TGI in the assay with UO-31 renal came to 25.5 µM.

With `CCN(CC)c1ccc2cc(C(=O)Nc3ccc(C)cc3)c(=N)oc2c1`, the TGI in the assay with A549 NSCLC, in the assay on COLO 205 colon, with HCT-15 colon, in the assay with HL-60(TB) leukemia, in the assay on HOP-62 NSCLC and in the assay on HOP-92 NSCLC was above 100 µM throughout. Also, the TGI in the assay on HT29 colon, in the assay with IGROV1 ovarian, in the assay on K-562 leukemia, in the assay with MDA-MB-435, with MDA-N and in the assay on MOLT-4 leukemia was above 100 µM each time. Also, the TGI in the assay on NCI-H226 lung, in the assay on NCI-H460 lung, in the assay on SN12C renal, in the assay on SNB-19 CNS, in the assay with SW-620 colon and in the assay with T-47D breast was above 100 µM in each case. Moreover, the TGI with UACC-257 melanoma is above 100 µM.

As for `O=C1CSC2=NC3=C(CSC/C3=C\c3ccccc3)C(c3ccccc3)N12` (stereo not given), the TGI in the assay on A549 NSCLC, in the assay with COLO 205 colon, in the assay with HCT-15 colon, in the assay on HL-60(TB) leukemia, with HOP-62 NSCLC and in the assay on HOP-92 NSCLC was above 100 µM in each case. Moreover, the TGI in the assay on HT29 colon, in the assay with IGROV1 ovarian, with K-562 leukemia, in the assay on MDA-MB-435, with MDA-N and in the assay with MOLT-4 leukemia was above 100 µM throughout. Further, the TGI in the assay on NCI-H226 lung, with NCI-H460 lung, with SN12C renal, in the assay with SW-620 colon, with T-47D breast and with UACC-257 melanoma was above 100 µM in each case. In the assay with UO-31 renal, this compound showed a TGI above 100 µM.
